Assays:
hepatocytes [1] = system: hepatocytes
hepatocytes [2] = system: hepatocytes; remark: listed apart in the source
hepatocytes [3] = assay: qRT-PCR validation of the Example 12 RNA-seq results;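 further: Compound-treated versus DMSO control, target Ct normalized to GAPDH or β-actin reference (ΔΔCt method), positive values mean higher expression than DMSO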
hepatocytes [4] = assay: RNA-seq of hepatocytes stimulated with the compounds of Table 68; conditions: hepatocytes, RNA-seq
[5] = system: primary human hepatocytes; assay: RNA-seq of primary human hepatocytes treated with 39 small molecules (pilot and validation); conditions: pilot RNA-seq study of Example 2; significance: FPKM≥0.5, log 2(fold change)≥1, q-value ≤0.05

With `CO[C@H]1/C=C/O[C@@]2(C)Oc3c(C)c(O)c4c(O)c(c(/C=N/N5CCN(C)CC5)c(O)c4c3C2=O)NC(=O)/C(C)=C\C=C\[C@H](C)[C@H](O)[C@@H](C)[C@@H](O)[C@@H](C)[C@H](OC(C)=O)[C@@H]1C` [MT-901, Rifampicin] the “DESeq log2fc, CYP7A1” value (hepatocytes [1]) was −1.44, the “qRT-PCR log2fc, CYP2C19” value (hepatocytes [2]) was −0.37 and the “qRT-PCR log2fc, AGTR1” value (hepatocytes [3]; log 2 fold change in AGTR1 gene expression) was −0.37. The “qRT-PCR log2fc, ALAS1” value (hepatocytes [3]; log 2 fold change in ALAS1 gene expression) was 0.3, the “qRT-PCR log2fc, CA12” value (hepatocytes [3]; log 2 fold change in CA12 gene expression) was 0.53 and the “qRT-PCR log2fc, ENO3” value (hepatocytes [3]; log 2 fold change in ENO3 gene expression) was −0.06. The “qRT-PCR log2fc, POR” value (hepatocytes [3]; log 2 fold change in POR gene expression) was 0.16, the “qRT-PCR log2fc, SLC6A6” value (hepatocytes [3]; log 2 fold change in SLC6A6 gene expression) was −0.14 and the “qRT-PCR log2fc, SLC6A20” value (hepatocytes [3]; log 2 fold change in SLC6A20 gene expression) was −0.17. The “qRT-PCR log2fc, SLC51B” value (hepatocytes [3]; log 2 fold change in SLC51B gene expression) was 1.72, the “qRT-PCR log2fc, VLDLR” value (hepatocytes [3]; log 2 fold change in VLDLR gene expression) was 0.63 and the “Cuffdiff log2fc, AGTR1” value (hepatocytes [4]; log 2 fold change in AGTR1 gene expression, Cuffdiff) was 1.1. The “DESeq log2fc, AGTR1” value (hepatocytes [4]; log 2 fold change in AGTR1 gene expression, DESeq) was 1.18, the “Cuffdiff log2fc, ALAS1” value (hepatocytes [4]; log 2 fold change in ALAS1 gene expression, Cuffdiff) was 1.45 and the “DESeq log2fc, ALAS1” value (hepatocytes [4]; log 2 fold change in ALAS1 gene expression, DESeq) was 1.47. For the same compound, the “Cuffdiff log2fc, CA12” value (hepatocytes [4]; log 2 fold change in CA12 gene expression, Cuffdiff) was 1.53, the “DESeq log2fc, CA12” value (hepatocytes [4]; log 2 fold change in CA12 gene expression, DESeq) was 1.56 and the “DESeq log2fc, CYP2C19” value (hepatocytes [4]; log 2 fold change in CYP2C19 gene expression, DESeq) was 2.3. The “Cuffdiff log2fc, ENO3” value (hepatocytes [4]; log 2 fold change in ENO3 gene expression, Cuffdiff) was −1.13, the “DESeq log2fc, ENO3” value (hepatocytes [4]; log 2 fold change in ENO3 gene expression, DESeq) was −0.97 and the “Cuffdiff log2fc, POR” value (hepatocytes [4]; log 2 fold change in POR gene expression, Cuffdiff) was 1.13. For the same compound, the “DESeq log2fc, POR” value (hepatocytes [4]; log 2 fold change in POR gene expression, DESeq) was 1.17, the “Cuffdiff log2fc, SLC6A6” value (hepatocytes [4]; log 2 fold change in SLC6A6 gene expression, Cuffdiff) was 1.28 and the “DESeq log2fc, SLC6A6” value (hepatocytes [4]; log 2 fold change in SLC6A6 gene expression, DESeq) was 1.39. The “Cuffdiff log2fc, SLC6A20” value (hepatocytes [4]; log 2 fold change in SLC6A20 gene expression, Cuffdiff) was 1.03, the “DESeq log2fc, SLC6A20” value (hepatocytes [4]; log 2 fold change in SLC6A20 gene expression, DESeq) was 1.06 and the “Cuffdiff log2fc, SLC51B” value (hepatocytes [4]; log 2 fold change in SLC51B gene expression, Cuffdiff) was 1.02. The “DESeq log2fc, SLC51B” value (hepatocytes [4]; log 2 fold change in SLC51B gene expression, DESeq) was 1.19, the “Cuffdiff log2fc, VLDLR” value (hepatocytes [4]; log 2 fold change in VLDLR gene expression, Cuffdiff) was 1.69 and the “DESeq log2fc, VLDLR” value (hepatocytes [4]; log 2 fold change in VLDLR gene expression, DESeq) was 1.71. The “Number (#) of genes having significantly changed expression” value [5] was 90.
